Experimental data from patent US20240197729A1, “ALK-5 Inhibitors and Uses Thereof” (Sumitomo Pharma Oncology, Inc., priority 2021, published 2024).
pEC50, pIC50: −log10 of the molar value.

Experiments:
ALK5 = target: T1, ALK5 (Homo sapiens, UniProt P36897); assay: LanthaScreen Eu Kinase Binding Assay, ALK5; conditions: 10-point titration, read-out: Kinase Inhibition: ALK5 IC50 (Lantha)
T1 sequence (P36897 34-503): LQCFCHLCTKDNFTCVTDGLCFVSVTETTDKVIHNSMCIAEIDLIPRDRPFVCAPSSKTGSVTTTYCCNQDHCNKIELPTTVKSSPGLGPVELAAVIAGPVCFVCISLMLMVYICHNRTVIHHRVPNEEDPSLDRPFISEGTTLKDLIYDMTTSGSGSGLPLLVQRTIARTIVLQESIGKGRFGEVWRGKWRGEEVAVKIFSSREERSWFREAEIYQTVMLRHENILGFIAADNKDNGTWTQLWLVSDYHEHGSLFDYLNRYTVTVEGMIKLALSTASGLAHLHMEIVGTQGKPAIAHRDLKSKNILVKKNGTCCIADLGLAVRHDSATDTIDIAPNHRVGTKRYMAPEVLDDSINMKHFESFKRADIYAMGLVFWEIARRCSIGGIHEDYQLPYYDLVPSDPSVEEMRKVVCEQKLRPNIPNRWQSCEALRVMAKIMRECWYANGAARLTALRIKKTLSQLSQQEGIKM
Procedure: Selected compounds of the present disclosure were assayed for inhibitory activity against ALK5 and ALK2. Activity determinations and selectivity were conducted by Thermo Fisher Scientific SelectScreen™ Biochemical Kinase Profiling Service using their LanthaScreen™ Eu Kinase Binding Assay Screening.
Binding of an Alexa Fluor™ conjugate or “tracer” to a kinase is detected by addition of a Eu-labeled anti-tag antibody. Binding of the tracer and antibody to a kinase results in a high degree of FRET, whereas displacement of the tracer with a kinase inhibitor results in a loss of FRET. This assay is carried out by mixing the compound tested with the reagents and reading; no development step is required.
Life Technologies' Kinase Tracers are based on ATP-competitive kinase inhibitors, making them suitable for detection of any compounds that bind to the ATP site. Inhibitors that bind the ATP site include both Type I kinase inhibitors, which bind solely to the ATP site, and Type II inhibitors (e.g., Gleevec®/Imatinib, Sorafenib, BIRB-796), which bind to both the ATP site and a second site often referred to as the allosteric site.
The test compounds were screened in 1% DMSO (final) in the well. For 10-point titrations, 3-fold serial dilutions were conducted from the starting concentration (see Table 2 below).
All Kinase/Antibody Mixtures were diluted to a 2× working concentration in the specified kinase buffer. The 4× AlexaFluor labeled Tracer was prepared in Kinase Buffer.
• Bar-coded, low volume, white, 384-well plate (Greiner Cat. #784207) • 1. 160 nL—100× Test Compound in 100% DMSO • 2. 3.84 μL—Kinase Buffer • 3. 8.0 μL—2× Kinase/Antibody Mixture • 4. 4.0 μL—4× Tracer • 5. 30-second plate shake • 6. 60-minute incubation at room temperature • 7. Read on fluorescence plate reader and analysis of the data
The following controls were made for each individual kinase and were located on the same plate as the kinase:
100% Displacement Control: The minimum Emission Ratio was established by the 100% Displacement Control wells, which contained the highest concentration of the known inhibitor used in that assay.
Known Inhibitor: A known inhibitor control standard curve, 10-point titration, was run for each individual kinase on the same plate as the kinase to ensure the inhibitor was displaced within an expected IC50 range previously determined.
The following equations were used for each set of data points: […]
Data generated were plotted using the graphing software XLfit from IDBS. The dose response curve was curve fit to model number 205.

[1] = test system: TGF-β1-induced SMAD signaling pathway; assay: RD SMAD reporter (RDSR) assay; format: cell-based; conditions: Homo sapiens; 200 pg/ml rhTGF-beta1, 24 h
Source text: TGF-beta (also referred to as TGF-β1) is a multifunctional, highly conserved cytokine with many key functions in development, cell growth and apoptosis, and plays a key role in the tissue repair response and functions as a potent immune modulator. TGF-β signaling is triggered when the activated TGF-β homodimer binds to the TGF-β receptor 2, which in turn leads to the recruitment and phosphorylation of TGF-β receptor 1 (ALK5). Activated TGF-β receptor 1 phosphorylates the signal transduction molecules SMAD2 and SMAD3. These bind to common mediator SMAD4 and translocate to the nucleus where they bind to short conserved DNA sequences called the SMAD binding element and induce the transcription of various target genes.
A stable cellular reporter, the RD SMAD reporter (RDSR), was generated to test the ability of certain compounds disclosed herein to inhibit the canonical TGF-β1-induced SMAD signaling pathway in a cellular context. The RD SMAD reporter (RDSR) cell line was generated by stably integrating the SMAD cellular reporter plasmid (Promega, pGL4.48[luc2P/SBE/Hygro]) into the human rhabdomyosarcoma cell line RD (ATCC, CCL-136). Once SMAD signaling was triggered with, for example, the addition of TGF-beta1, receptor-activated SMADs bind the SMAD binding elements (SBEs) leading to the expression of intracellular luciferase.
The rhabdomyosarcoma line RD (ATCC, CCL-136) was transfected with a SMAD reporter vector (Promega, E3671) and a polyclonal stable cell line was selected using hygromycin B. The transfected vector contained three copies of a Smad-binding element (SBE) that drives transcription of the luciferase reporter gene luc2P (Photinus pyralis). luc2P is a synthetically-derived luciferase sequence with humanized codon optimization that is designed for high expression and reduced anomalous transcription. The luc2P gene contains hPEST, a protein destabilization sequence, which allows luc2P protein levels to respond more quickly than those of luc2 to induction of transcription. The intracellular luciferase is quantified by the addition of equal volume (100 μl) of ONE-GLO substrate (Promega, E6120) and read within ten minutes on the Envision plate reader. The stable RDSR cell line was tested by evaluating the response to human TGF-beta1 (R&D Systems, 7754-BH-005) as well as myostatin (R&D Systems, 788-G8-010/CF) in a concentration-dependent manner after twenty-four hours of stimulation. […] For compound evaluation, the tool compounds (vactosertib and PF-06952229 (a TGFβR1 inhibitor available from MedChem Express HY-136244) were included as positive controls) or test compounds were incubated with cells for one hour at 37° C. then stimulated with 200 pg/ml rhTGF-beta1 for twenty-four hours. The activity of the reporter was determined with the addition of ONE-GLO (Promega) substrate, and luminescence counts were collected on the Envision plate reader (Perkin Elmer). The IC50 or EC50 was calculated using nonlinear regression curve fitting with graph pad prism software.
A comparative RDSR analysis was performed using IC50 values for selected compounds and standards obtained using the RDSR assay protocol described in Example 3.
The tool compounds vactosertib (an ALK5 inhibitor sourced from MedChem Express, HY-19928) and PF-06952229 (a TGFβR1 inhibitor) were included in the study as comparator compounds. Selected example compounds or comparator compounds were incubated with cells for one hour at 37° C. then stimulated with 200 pg/ml rhTGF-beta1 for twenty-four hours. The activity of the reporter was determined by adding ONE-GLO (Promega) substrate, and collecting luminescence counts on the Envision plate reader (Perkin Elmer).
Each of the example compounds and comparator compounds were tested at drug concentrations of from 20 micromolar to 1 nanomolar, and the IC50 value for each was calculated using Graph Pad Prism software. DMSO was used as a negative control and all wells contained normalized DMSO concentrations. […]

A549 lung fibroblasts = assay: Epithelial to mesenchymal transition gene expression in A549; format: cell-based; conditions: 5 ng/ml TGF-beta1, 48 h, up to 5 micromolar
Procedure: To evaluate whether Compounds 01 and 04 could inhibit epithelial to mesenchymal transition (EMT), an in vitro model using A549 lung fibroblasts was utilized. A549 cells were purchased from ATCC (CCL-185), and grown in RPMI media supplemented with 10 percent fetal bovine serum (FBS). On the day of the experiment, ten thousand A549 cells were seeded in eighty microliters total volume into a flat, tissue culture coated, ninety-six-well plate. Drugs, including positive control compounds vactosertib, PF-06952229 and LY3200882, were added in an eight point, one to three dilution series with the highest concentration of each drug being five micromolar, bringing the total volume of each well to ninety microliters. DMSO, which served to dissolve the 10 millimolar stock solution of each drug, was normalized across all wells After one hour of drug pretreatment, recombinant human TGF-beta1 was added to a final concentration of five nanograms per milliliter, bringing the volume to one hundred microliters. Recombinant human TGF-beta 1 was purchased from R&D Systems (7754-BH-005) and its stock solution was prepared according to manufacturer's instructions and diluted in RPMI media supplemented with 10% FBS. The ninety-six well plate with one hundred microliter volume was incubated at 37° C. at 5% CO2 for forty-eight hours. At the end of the incubation period, gene expression levels of various EMT markers were assessed using a custom designed QuantiGene Plex Gene Expression Assay. The genes chosen were CDH1 (E-cadherin), CDH2 (N-Cadherin), SNAI1 (Snail), SNAI2 (Slug), VIM (Vimentin), SPARC, GALNT6, CTNNB1 (beta-catenin), TGFB1, and MAML3.
Briefly, cell lysate was prepared using the QuantiGene Sample Processing Kit —Cultured Cells (QS0100) in the ninety-six well plate. Cell lysates were then subjected to bead hybridization, multiple probe hybridization steps and SAPE labeling following manufacturer's instruction. The plate was read on a Luminex MAGPIX instrument.

JAK signaling = assay: JAK selectivity assay, HEK blue IL-12 reporter; format: cell-based; conditions: HEK-Blue, 24 h, 12.5 ng/ml IL-12, 24 h
Procedure: The cells were purchased from Invivogen (Catalog Nr: hkb-il12) and maintained according to vendor instructions. On the day of the experiment, cells were harvested by repeated tapping of the flask to shake loose the cells attached to the bottom of the flask. Then, cells were harvested, washed and resuspended in DMEM media supplemented with 10% fetal calf serum. 30 Microliters of cell suspension was seeded into a 384-well tissue culture-coated plate containing approximately 10,000 total cells. […] Using the ECHO “Dose Response” software, the test compound was added in duplicate wells with a 3-fold dilution curve. DMSO was back-filled to normalize the DMSO across all wells. […] After 30 minutes of incubation at room temperature, the optical density was measured at 620 nanometer using the Perkin Elmer Envision plate reader. A color change can be detected at this wavelength when secreted alkaline phosphatase, which is triggered by IL-12 signaling, is present in the supernatant. […]

| pIC50 (ALK5) | pEC50 [1] | pIC50 (JAK signaling) | SMILES | CDH1 (E-Cadherin) gene expression (A549 lung fibroblasts) | expression of the nine genes induced with EMT (CDH2, SNAI1, SNAI2, VIM, SPARC, GALNT6, CTNNB1, TGFB1, MAML3) (A549 lung fibroblasts) |
| --- | --- | --- | --- | --- | --- |
| 8.30 to 8.70 | > 7.30 | – | Cc1cccc2c(Nc3ccnc(Nc4ccc(C5CCOCC5)cc4)c3)cnnc12 [Compound 08, N4-(8-methylcinnolin-4-yl)-N2-[4-(oxan-4-yl)phenyl]pyridine-2,4-diamine] | – | – |
| 8.30 to 8.70 | 7.00 to 7.30 | – | Cc1cccc2c(Nc3ccnc(Nc4cccc(C5CCOCC5)c4)c3)cnnc12 [Compound 07, N4-(8-methylcinnolin-4-yl)-N2-[3-(oxan-4-yl)phenyl]pyridine-2,4-diamine] | – | – |
| – | – | – | CC(C)c1cnc(-c2cc(Cl)ccc2F)cc1Nc1ccncc1C(=O)NC(CO)CO [PF-06952229, reference compound] | inhibition of downregulation of CDH1 (E-Cadherin) | inhibition of induction of the nine genes that are induced with EMT |
| – | – | – | CC(C)(O)c1cc(Nc2cc(Oc3cn(C4CC4)nc3C3CCOCC3)ccn2)ccn1 [LY3200882, reference compound] | inhibition of downregulation of CDH1 (E-Cadherin) | inhibition of induction of the nine genes that are induced with EMT |
| 8.30 to 8.70 | > 7.30 | – | Cc1cccc2c(Nc3ccnc(Nc4cccc(N5CCOCC5)c4)c3)cnnc12 [Compound 03, N4-(8-methylcinnolin-4-yl)-N2-[3-(morpholin-4-yl)phenyl]pyridine-2,4-diamine] | – | – |
| 8.30 to 8.70 | > 7.30 | – | Cc1cccc2c(Nc3ccnc(Nc4ccc(N5CCN(C)CC5)cc4)c3)cnnc12 [Compound 06, N4-(8-methylcinnolin-4-yl)-N2-[4-(4-methylpiperazin-1-yl)phenyl]pyridine-2,4-diamine] | – | – |
| – | – | > 6.52 | Cc1cnc(Nc2ccc(OCCN3CCCC3)cc2)nc1Nc1cccc(S(=O)(=O)NC(C)(C)C)c1 [Fedratinib, fedratinib] | – | – |
| > 8.30 | 7.00 to 7.30 | – | Cc1nn(CC(F)(F)F)cc1Nc1cc(Nc2cnnc3c(Cl)cccc23)ccn1 [Compound 02, N2-[3-methyl-1-(2,2,2-trifluoroethyl)-1H-pyrazol-4-yl]-N4-(8-chlorocinnolin-4-yl)pyridine-2,4-diamine] | – | – |
